Data reported in patent US20090118332A1, “Therapeutic Agents - 551” (AstraZeneca AB, priority 2006, published 2009).

Molecular target: T1, human Fatty Acid Synthase (Homo sapiens, UniProt P49327)
T1 construct: made in house
Assay: Human FAS enzyme assay (decrease in NADPH fluorescence)
Type: biochemical
Conditions: for inhibition at 100 µM: % inhibition at a concentration of 100 μmolar; for IC50, inhibition of human Fatty Acid Synthase: FAS enzyme assay, IC50 from fitted sigmoid curves
Description: Human and Rat FAS Enzyme Assay.
Fatty acid synthase is an enzyme complex that harbours seven enzymatic activities catalysing the reductive synthesis of long chain fatty acids from acetyl CoA and malonyl CoA to palmitate. When acetyl CoA and malonyl CoA are forming palmitate NADPH is consumed forming NADP. Since NADPH is fluorescent but not NADP the reaction can be measured by analysing the decrease in fluorescence.
Compounds were added to a black 384 well plate (Matrix) in a volume of 5 μl consisting of 20% DMSO and 80% Tris buffer pH 7.5, at a top concentration of 1 mM. NADPH, 30 μl of 166.6 μM, formulated in assay buffer (0.1M Tris ph7.5, 0.1 mM EDTA, 1 mM glutathione, 0.05% BSA), was then added to all of the wells of the plate. Fatty acid synthase Human or rat enzyme (0.4 μg, produced in house), dissolved in 20 mM Tris/HCl pH 7.5, 5 mM BOG, 1 mM TCEP, 10% glycerol, 1 mM EDTA, 150 mM NaCl, was then added to the plate in a volume of 10 μl. Enzyme was added to all but the last two columns of the plate, to which, 10 μl of assay buffer was added (0.1M Tris ph7.5, 0.1 mM EDTA, 1 mM glutathione, 0.05% BSA) to provide a no enzyme assay control. Following a 15-minute incubation period, at room temperature, the plates were read on an Envision plate reader using 340 nm excitation and 460 nm emission filters. This served as a time zero background read. Substrates (an equal mix of both malonyl and acetyl CoA) were then added to the plates in a total volume of 5 μl. The concentrations of malonyl and acetyl CoA in the mixture were 500 μM and 150 μM respectively. Both were prepared as 10 mM stock solutions in distilled water and were subsequently diluted to working concentrations in assay buffer. Plates were then incubated for a further 60 minutes, at room temperature, before being read again on the Envision reader using the same parameters as previously used. The data was analysed by subtracting the background time zero data from that generated following the final 60 minute incubate and the percent inhibition compared to the maximum and minimum assay controls was determined. Sigmoid curves were fitted using Origin 7.5 Client software and IC50 values were determined.

T1 sequence (P49327 whole entry): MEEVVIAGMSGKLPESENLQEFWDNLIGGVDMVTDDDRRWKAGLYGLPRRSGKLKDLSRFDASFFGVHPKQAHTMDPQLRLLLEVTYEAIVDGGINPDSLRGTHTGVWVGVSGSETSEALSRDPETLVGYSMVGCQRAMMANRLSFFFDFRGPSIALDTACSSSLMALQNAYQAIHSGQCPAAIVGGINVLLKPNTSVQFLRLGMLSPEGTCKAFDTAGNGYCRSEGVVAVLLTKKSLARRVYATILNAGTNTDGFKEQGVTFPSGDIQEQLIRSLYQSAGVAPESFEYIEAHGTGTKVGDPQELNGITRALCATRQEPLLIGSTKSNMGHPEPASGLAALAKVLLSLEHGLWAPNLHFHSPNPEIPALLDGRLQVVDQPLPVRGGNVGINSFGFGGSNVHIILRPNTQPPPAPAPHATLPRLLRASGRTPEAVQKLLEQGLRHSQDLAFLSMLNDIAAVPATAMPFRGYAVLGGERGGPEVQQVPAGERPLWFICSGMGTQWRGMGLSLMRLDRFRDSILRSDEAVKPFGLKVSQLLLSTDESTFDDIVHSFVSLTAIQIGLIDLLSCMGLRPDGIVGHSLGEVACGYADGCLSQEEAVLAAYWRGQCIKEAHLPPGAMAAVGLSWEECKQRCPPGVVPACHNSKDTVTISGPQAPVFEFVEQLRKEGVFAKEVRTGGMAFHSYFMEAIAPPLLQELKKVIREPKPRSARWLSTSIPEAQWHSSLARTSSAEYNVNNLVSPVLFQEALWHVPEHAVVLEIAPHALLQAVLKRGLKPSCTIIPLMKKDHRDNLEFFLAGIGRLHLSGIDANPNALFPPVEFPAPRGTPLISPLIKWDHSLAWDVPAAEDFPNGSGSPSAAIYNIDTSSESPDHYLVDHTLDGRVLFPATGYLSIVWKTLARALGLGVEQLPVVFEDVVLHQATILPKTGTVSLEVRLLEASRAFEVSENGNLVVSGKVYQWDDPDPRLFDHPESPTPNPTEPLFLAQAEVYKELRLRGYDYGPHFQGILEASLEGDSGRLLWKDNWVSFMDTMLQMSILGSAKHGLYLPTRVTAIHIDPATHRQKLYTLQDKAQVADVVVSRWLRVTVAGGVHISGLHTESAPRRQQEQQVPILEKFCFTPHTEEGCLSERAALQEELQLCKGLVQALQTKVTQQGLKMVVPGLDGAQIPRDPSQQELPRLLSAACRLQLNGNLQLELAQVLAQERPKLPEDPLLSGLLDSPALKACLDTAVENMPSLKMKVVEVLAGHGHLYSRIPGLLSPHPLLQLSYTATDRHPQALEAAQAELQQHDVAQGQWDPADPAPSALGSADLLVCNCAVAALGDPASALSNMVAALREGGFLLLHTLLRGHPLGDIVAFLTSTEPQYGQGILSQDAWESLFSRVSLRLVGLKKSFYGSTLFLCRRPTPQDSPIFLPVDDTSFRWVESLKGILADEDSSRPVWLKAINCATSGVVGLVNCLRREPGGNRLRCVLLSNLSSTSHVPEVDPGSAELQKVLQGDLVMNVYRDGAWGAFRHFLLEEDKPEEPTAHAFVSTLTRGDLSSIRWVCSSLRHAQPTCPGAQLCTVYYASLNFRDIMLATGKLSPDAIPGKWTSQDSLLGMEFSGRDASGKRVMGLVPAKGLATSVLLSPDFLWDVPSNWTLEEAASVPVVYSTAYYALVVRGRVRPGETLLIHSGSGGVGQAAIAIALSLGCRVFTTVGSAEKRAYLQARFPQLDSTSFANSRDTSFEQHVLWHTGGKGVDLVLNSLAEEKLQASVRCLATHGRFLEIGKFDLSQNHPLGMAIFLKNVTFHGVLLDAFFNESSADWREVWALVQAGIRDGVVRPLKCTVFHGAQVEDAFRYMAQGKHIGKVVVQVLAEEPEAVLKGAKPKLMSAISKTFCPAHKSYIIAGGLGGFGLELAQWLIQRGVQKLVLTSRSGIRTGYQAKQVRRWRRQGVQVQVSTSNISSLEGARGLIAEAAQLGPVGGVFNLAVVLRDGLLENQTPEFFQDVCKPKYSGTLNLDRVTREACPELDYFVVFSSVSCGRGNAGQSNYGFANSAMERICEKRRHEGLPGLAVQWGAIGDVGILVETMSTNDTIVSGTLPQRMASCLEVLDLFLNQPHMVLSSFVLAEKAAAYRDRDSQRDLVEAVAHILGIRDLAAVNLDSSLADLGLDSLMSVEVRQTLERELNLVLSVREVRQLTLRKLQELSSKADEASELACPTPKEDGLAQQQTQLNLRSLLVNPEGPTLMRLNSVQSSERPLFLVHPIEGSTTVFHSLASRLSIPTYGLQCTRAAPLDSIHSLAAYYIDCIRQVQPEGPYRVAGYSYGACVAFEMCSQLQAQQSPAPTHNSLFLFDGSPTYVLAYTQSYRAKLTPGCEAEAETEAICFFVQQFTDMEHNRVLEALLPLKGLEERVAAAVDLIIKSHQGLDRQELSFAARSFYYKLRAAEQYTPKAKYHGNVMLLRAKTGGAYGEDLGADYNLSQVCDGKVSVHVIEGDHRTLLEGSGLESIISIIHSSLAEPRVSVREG

SMILES | inhibition at 100 µM | IC50, inhibition of human Fatty Acid Synthase
CCC(=O)N1CC[C@@H](NC(=O)Nc2cc(C(=O)N3CCC(c4ccc(C#N)cc4)CC3)ccc2C)C1 [Example 276, 3-[5-[4-(4-cyanophenyl)piperidine-1-carbonyl]-2-methyl-phenyl]-1-[(3R)-1-propanoylpyrrolidin-3-yl]urea] | 98.2% | –
Cc1ccc(NC(=O)NCc2ccc(C#N)cc2)cc1C(=O)N1CCC(c2ccc(C#N)cc2)CC1 [Example 378, 3-[(4-cyanophenyl)methyl]-1-[3-[4-(4-cyanophenyl)piperidine-1-carbonyl]-4-methylphenyl]urea] | 73.2% | –
N#Cc1ccc(C2CCN(C(=O)c3ccc(OC(F)(F)F)c(NC(=O)NCc4ccccc4)c3)CC2)cc1 [Example 5, 3-benzyl-1-[5-[4-(4-cyanophenyl)piperidine-1-carbonyl]-2-(trifluoromethoxy)phenyl]urea] | 78.8% | –
Cc1ccc(C(=O)N2CCC(c3ccc(C#N)cc3)CC2)cc1NC(=O)NCCCS(C)(=O)=O [Example 223, 1-[5-[4-(4-cyanophenyl)piperidine-1-carbonyl]-2-methyl-phenyl]-3-(3-methylsulfonylpropyl)urea] | 92.8% | –
Cc1ccc(C(=O)N2CCC(c3ccc(C#N)cc3)CC2)cc1NC(=O)NC1CCCC[C@@H]1C(N)=O (stereo partly drawn) [Example 134, (1S)-2-[[5-[4-(4-cyanophenyl)piperidine-1-carbonyl]-2-methyl-phenyl]carbamoylamino]cyclohexane-1-carboxamide] | 84.6% | –
Cc1ccc(C(=O)N2CCC(c3ccc(C#N)cc3)CC2)cc1NC(=O)N[C@@H]1CCCC[C@H]1NS(=O)(=O)N(C)C (relative stereo) [Example 319, 1-[5-[4-(4-cyanophenyl)piperidine-1-carbonyl]-2-methyl-phenyl]-3-[(trans)-2-(dimethylsulfamoylamino)cyclohexyl]urea] | 84.3% | –
CCCNC(=O)CCCNC(=O)Nc1cc(C(=O)N2CCC(c3ccc(C#N)cc3)CC2)ccc1C [Example 235, 4-[[5-[4-(4-cyanophenyl)piperidine-1-carbonyl]-2-methyl-phenyl]carbamoylamino]-N-propyl-butanamide] | 95.8% | –
CSCCCNC(=O)Nc1cc(C(=O)N2CCC(c3ccc(C#N)cc3)CC2)ccc1C [Example 157, 1-[5-[4-(4-cyanophenyl)piperidine-1-carbonyl]-2-methyl-phenyl]-3-(3-methylsulfanylpropyl)urea] | 92.7% | –
Cc1ccc(C(=O)N2CCC(c3ccc(C#N)cc3)CC2)cc1NC(=O)NCC1CCN(C)C1 (centres unmarked) [Example 268, 1-[5-[4-(4-cyanophenyl)piperidine-1-carbonyl]-2-methyl-phenyl]-3-[(1-methylpyrrolidin-3-yl)methyl]urea] | 90.1% | –
Cc1ccc(C(=O)N2CCC(c3ccc(C#N)cc3)CC2)cc1NC(=O)NC1CN2CCC1CC2 (centres unmarked) [Example 143, 3-(1-azabicyclo[2.2.2]oct-8-yl)-1-[5-[4-(4-cyanophenyl)piperidine-1-carbonyl]-2-methyl-phenyl]urea] | 84.4% | –
Cc1ccc(C(=O)N2CCC(c3ccc(C#N)cc3)CC2)cc1NC(=O)NC1CCOC(C)(C)C1 (centres unmarked) [Example 77, 1-[5-[4-(4-cyanophenyl)piperidine-1-carbonyl]-2-methyl-phenyl]-3-(2,2-dimethyloxan-4-yl)urea] | 89.6% | –
Cc1ccc(C(=O)N2CCC(O)(c3ccc(Cl)cc3)CC2)cc1NC(=O)NC(C)C [Example 350, 1-[5-[4-(4-chlorophenyl)-4-hydroxy-piperidine-1-carbonyl]-2-methyl-phenyl]-3-propan-2-yl-urea] | 71.4% | –
Cc1ccc(C(=O)N2CCC(c3ccc(C#N)cc3)CC2)cc1NC(=O)NCc1cnn(C)c1 [Example 356, 1-[5-[4-(4-cyanophenyl)piperidine-1-carbonyl]-2-methyl-phenyl]-3-[(1-methylpyrazol-4-yl)methyl]urea] | 92.4% | –
COc1ccccc1C1CCN(C(=O)c2ccc(C)c(NC(=O)NC(C)C)c2)CC1 [1-[5-[4-(2-methoxyphenyl)piperidine-1-carbonyl]-2-methylphenyl]-3-propan-2-ylurea] | – | do not have IC50s in the range of about 0.001 μM to about 30 μM
Cc1ccc(C(=O)N2CCC(c3ccc(C#N)cc3)CC2)cc1NC(=O)N(C)CC1CCCO1 (centres unmarked) [3-[5-[4-(4-cyanophenyl)piperidine-1-carbonyl]-2-methylphenyl]-1-methyl-1-(oxolan-2-ylmethyl)urea] | – | do not have IC50s in the range of about 0.001 μM to about 30 μM
CC(C)NC(=O)Nc1cc(C(=O)N2CCC(c3ccc(C#N)cc3)CC2)ccc1S(C)(=O)=O [Example 364, 3-[5-[4-(4-cyanophenyl)piperidine-1-carbonyl]-2-methylsulfonylphenyl]-1-propan-2-ylurea] | 84.1% | –
Cc1ccc(C(=O)N2CCC(c3cccc(Cl)c3)CC2)cc1NC(=O)NC(C)C [1-[5-[4-(3-chlorophenyl)piperidine-1-carbonyl]-2-methylphenyl]-3-propan-2-ylurea] | – | do not have IC50s in the range of about 0.001 μM to about 30 μM
Cc1ccc(C(=O)N2CCC(c3ccc(C#N)cc3)CC2)cc1NC(=O)NCCC(=O)Nc1cnoc1C [Example 241, 3-[[5-[4-(4-cyanophenyl)piperidine-1-carbonyl]-2-methyl-phenyl]carbamoylamino]-N-(5-methyl-1,2-oxazol-4-yl)propanamide] | 92.4% | –
Cc1ccc(C(=O)N2CCC(c3ccc(C#N)cc3)CC2)cc1NC(=O)NCc1ccc(F)c(F)c1 [Example 56, 1-[5-[4-(4-cyanophenyl)piperidine-1-carbonyl]-2-methyl-phenyl]-3-[(3,4-difluorophenyl)methyl]urea] | 105% | –

Now from value to compound, other results behind:

inhibition at 100 µM | SMILES | IC50, inhibition of human Fatty Acid Synthase
79.7% | Cc1ccc(NC(=O)NCc2cccnc2)cc1C(=O)N1CCC(c2ccc(C#N)cc2)CC1 [Example 25, 1-[3-[4-(4-cyanophenyl)piperidine-1-carbonyl]-4-methyl-phenyl]-3-(pyridin-3-ylmethyl)urea] | –
89.1% | CCOCCCNC(=O)Nc1cc(C(=O)N2CCC(c3ccc(C#N)cc3)CC2)ccc1C [Example 158, 3-[5-[4-(4-cyanophenyl)piperidine-1-carbonyl]-2-methyl-phenyl]-1-(3-ethoxypropyl)urea] | –
85.9% | CC(=O)NC(C)(C)CNC(=O)Nc1cc(C(=O)N2CCC(c3ccc(C#N)cc3)CC2)ccc1C [Example 261, N-[1-[[5-[4-(4-cyanophenyl)piperidine-1-carbonyl]-2-methyl-phenyl]carbamoylamino]-2-methyl-propan-2-yl]acetamide] | –
92.5% | Cc1ccc(C(=O)N2CCC(c3ccc(C#N)cc3)CC2)cc1NC(=O)NCCNc1ccc([N+](=O)[O-])cc1 [Example 87, 1-[5-[4-(4-cyanophenyl)piperidine-1-carbonyl]-2-methyl-phenyl]-3-[2-[(4-nitrophenyl)amino]ethyl]urea] | –
64.6% | CCS(=O)(=O)NCCN(C)C(=O)Nc1cc(C(=O)N2CCC(c3ccc(C#N)cc3)CC2)ccc1C [Example 402, 3-[5-[4-(4-cyanophenyl)piperidine-1-carbonyl]-2-methylphenyl]-1-[2-(ethylsulfonylamino)ethyl]-1-methylurea] | –
79.9% | CC(C)NC(=O)Nc1cc(C(=O)N2CCC(c3ccc(C#N)cc3)CC2)ccc1CS(C)(=O)=O [Example 403, 3-[5-[4-(4-cyanophenyl)piperidine-1-carbonyl]-2-(methylsulfonylmethyl)phenyl]-1-propan-2-ylurea] | –
94.3% | Cc1ccc(C(=O)N2CCC(c3ccc(C#N)cc3)CC2)cc1NC(=O)NCCC(=O)NCCO [Example 230, 3-[[5-[4-(4-cyanophenyl)piperidine-1-carbonyl]-2-methyl-phenyl]carbamoylamino]-N-(2-hydroxyethyl)propanamide] | –
95.8% | CCc1ccc(C(=O)N2CCC(c3ccc(C#N)cc3)CC2)cc1NC(=O)NC1COC1 [Example 298, 1-[5-[4-(4-cyanophenyl)piperidine-1-carbonyl]-2-ethyl-phenyl]-3-(oxetan-3-yl)urea] | –
90.8% | CCC(CC)NC(=O)Nc1cc(C(=O)N2CCC(c3ccc(C#N)cc3)CC2)ccc1C [Example 53, 3-[5-[4-(4-cyanophenyl)piperidine-1-carbonyl]-2-methyl-phenyl]-1-pentan-3-yl-urea] | –
85.8% | Cc1ccc(C(=O)N2CCC(c3ccc(C#N)cc3)CC2)cc1NC(=O)N[C@H]1CC[C@H](O)CC1 [Example 193, 1-[5-[4-(4-cyanophenyl)piperidine-1-carbonyl]-2-methyl-phenyl]-3-(4-hydroxycyclohexyl)urea] | –
